Where a SMILES comes first, the peptide text is derived from it. Bridges are numbered along the chain shown (N, C = ends). [ ]: non-standard residue; d: D form. The star is where a group is joined. ξ: configuration not given here. Lauroyl = CCCCCCCCCCCC(=O)*; Octanoyl = CCCCCCCC(=O)*; ξLac = CC(O)C(=O)O
Key:
[1] = tested on: human umbilical chord artery endothelial cells (HUAEC); assay: Ca-influx after vasopressin analog stimulation of HUAEC, samples pre-incubated in human serum; type: cell-based; parameters: key to Activity of Various Vasopressin Analogs, 0 h / Activity of Various Vasopressin Analogs, 1 h / Activity of Various Vasopressin Analogs, 2 h / Activity of Various Vasopressin Analogs, 4 h: “−” for no detectable activity; “+” to “+++” for slight to high activity; “+” to “+++” for slight to high activity; “+” to “+++” for slight to high activity; conditions: for Activity of Various Vasopressin Analogs, 0 h: 0 h pre-incubation in pooled human serum at 37° C. (serum present); for Activity of Various Vasopressin Analogs, 0 h / Activity of Various Vasopressin Analogs, 1 h / Activity of Various Vasopressin Analogs, 2 h / Activity of Various Vasopressin Analogs, 4 h: Ca-influx in HUAEC, 50 nM per well; for Activity of Various Vasopressin Analogs, 1 h: 1 h pre-incubation in pooled human serum at 37° C.; for Activity of Various Vasopressin Analogs, 2 h: 2 h pre-incubation in pooled human serum at 37° C.; for Activity of Various Vasopressin Analogs, 4 h: 4 h pre-incubation in pooled human serum at 37° C.; for course of activity on incubation in human serum: in words
Source text: Ca-influx after vasopressin analog stimulation of human umbilical chord artery endothelial cells (HUAEC) was used to test the biological activity of the various vasopressin analogs. The material used were: 75 cm^2 tissue culture flasks, BD Bioscience, Bedford Mass. (catalogue number 137787) with 0.2 μm vented blue plug seal caps (catalogue number 353136); human umbilical artery endothelial cells (HUAEC), Lonza, Walkersville, Md. (catalogue number CC-2520); EGM-2 fully supplement medium, Lonza, Walkersville, Md. (catalogue number CC-3162); Fura-2 AM, Invitrogen/Molecular Probes, Carlsbad, Calif. (catalogue number F-1221) (Fura-2 AM is a high affinity, intracellular calcium indicator that is ratiometric and UV light-excitable; the acetoxymethyl (AM) ester form is useful for noninvasive intracellular loading as it is cell permeable. Once inside the cell the ester is clipped which renders the Fura-2 molecule cell impermeable and therefore trapped inside.); terlipressin derivatives custom made by Anaspec, San Jose Calif., according to inventors specifications; pooled human serum, Sigma, St. Louis, Mo. (catalogue number H4522); phosphate buffered saline (PBS), Fisher Scientific, Fair Lawn, N.J. (catalogue number BP399-500); trypsin-EDTA solution, 0.25%, Invitrogen/Gibco, Carlsbad, Calif. (catalogue number 25200-072); heat inactivated fetal bovine serum (FBS), Invitrogen/Gibco, Carlsbad, Calif. (catalogue number 10438-026); black polystyrene 96 well flat-bottom assay plates, Corning Inc., Corning, N.Y. (catalogue number 3916); Chameleon plate multilabel detection reader, Hidex, Turku, Finland, distributed by Bioscan, Washington, D.C.; dimethyl sulfoxide (DMSO), Fisher Scientific, Fair Lawn, N.J. (catalogue number D-136-1).
The methods used for tissue or cell culture are as follows: a vial of HUAEC (>0.5×10^6 cells) was thawed and seeded in two 75 cm^2 flasks with 15 ml EGM-2 medium each. Cells were grown over night and medium was changed. Media in the flasks were changed on a Monday, Wednesday, Friday schedule. Cells were split at approximately 80% confluency (using trypsin). Media were removed and the flasks were washed with 10 ml 1×PBS. The PBS was removed, 1.5 ml trypsin-EDTA solution was added and incubated for 5 min at 37° C. Three ml of FBS added and the cells were counted. The cells were centrifuged at 200×G for 5 min, resuspended in EGM-2 medium and distributed into new 75 cm2 flasks @ 3000-5000 cells per cm2.
To prepare for the Ca2+-influx assay, cells were distributed into one black 96 well plate @ 10^5 cells/well. Cells were allowed to adhere overnight and the medium was then removed. Fifty μg Fura-2 was dissolved in 50 μl DMSO and added to 10 ml PBS/2% FBS. The cells were stained with 20 μl of 5 μg/ml Fura-2 in PBS/2% FBS for 2 h, then 180 μl EGM-2 medium supplemented with CaCl2 and glucose was added (10 mM CaCl2 and 11.1 mM glucose final concentrations).
To prepare analogs for testing, 50 uM terlipressin (or derivative) stock solution in DMSO was prepared. […] (placed on ice after incubation).
To measure Ca-influx, Fura-2 fluorescence was measured for 4 repetitions per well at 340 nm ex/510 nm em and 420 nm ex/510 nm em (4 measurement before and 16 after injection of drug. At t=12 sec, 20 μl of terlipressin or derivative was injected as a 500 nM solution (or serum) for a final concentration of 50 nM per well. Fura-2 fluorescence was measured for […] per well at 340 nm ex/510 nm em and 420 nm ex/510 nm em (4 measurements before and 16 after injection of drug). The controls included injected human serum alone, and terlipressin or derivative dissolved in PBS as […]. All measurements were done in hexuplicate.
Data analysis was done using Graphpad Prism version 5.0 software (Graphpad software Inc, San Diego, Calif.). […]

[2] = Solubility in water of the synthesized peptide; type: physicochemical; conditions: in words
[3] = tested on: rat ear model; assay: Rat ear model, maintenance of vasoconstriction (paleness of ears) after subcutaneous injection; type: in vivo; conditions: for loss of paleness after: subcutaneous injection, ears examined after 6 and 24 h
Experimental: Using a rat ear model, a vasopressin analog with metal binding moiety of the present invention, His6Ter (“His6” disclosed as SEQ ID NO: 52), was evaluated for it ability to maintain vasoconstriction for an extended period of time. The analog was formulated at a 2% load in polymeric carrier containing 40PLPEG537-Zn-chelate. The peptide analog-polymeric complex was injected subcutaneously into the back of one set of rats, while terlipressin alone was also injected similarly in another set of rats. The ears were examined at baseline and at intervals up to 48 h.
Using the same model, the effects of delayed release of biologically-active lysine vasopressin from the peptide analog His6Ter (“His6” disclosed as SEQ ID NO: 52), with or without complexing in polymeric carrier, was tested. In the experiment, terlipressin was conjugated with a his tag metal binding moiety to result in the His6Ter peptide analog (“His6” disclosed as SEQ ID NO: 52). A portion of the His6Ter analog (“His6” disclosed as SEQ ID NO: 52) was formulated at 2% loading in 40PLPEG537-Zn-chelate. The three test materials were injected subcutaneously into groups of rats and the ears were examined after 6 and 24 h.

[4] = cited from earlier work

Row | Structure (SMILES) | solubility in water [2] | Activity of Various Vasopressin Analogs, 0 h [1] | Activity of Various Vasopressin Analogs, 1 h [1] | Activity of Various Vasopressin Analogs, 2 h [1] | Activity of Various Vasopressin Analogs, 4 h [1] | other results
1 | CCCCCCCC(=O)OC(C)C(=O)NCC(=O)NCC(=O)NCC(=O)N[C@H]1CSSC[C@@H](C(=O)N2CCC[C@H]2C(=O)N[C@@H](CCCCN)C(=O)NCC(N)=O)NC(=O)[C@H](CC(N)=O)NC(=O)[C@H](CCC(N)=O)NC(=O)[C@H](Cc2ccccc2)NC(=O)[C@H](Cc2ccc(O)cc2)NC1=O (stereo partly drawn) [C8TerE, CH3(CH2)6CO—OHC(CH3)CO-Gly-Gly-Gly-Cys-Tyr-Phe-Gln-Asn-Cys-Pro-Lys-Gly-NH2] (Octanoyl-[ξLac]GGGCYFQNCPKG-NH2; disulfide 5-10) | water soluble |  |  |  |  | 
2 | NCCCC[C@H](NC(=O)[C@@H]1CCCN1C(=O)[C@@H]1CSSC[C@H](NC(=O)CNC(=O)CNC(=O)CNC(=O)[C@H](Cc2c[nH]cn2)NC(=O)[C@H](Cc2c[nH]cn2)NC(=O)[C@H](Cc2c[nH]cn2)NC(=O)[C@H](Cc2c[nH]cn2)NC(=O)[C@H](Cc2c[nH]cn2)NC(=O)[C@@H](N)Cc2c[nH]cn2)C(=O)N[C@@H](Cc2ccc(O)cc2)C(=O)N[C@@H](Cc2ccccc2)C(=O)N[C@@H](CCC(N)=O)C(=O)N[C@@H](CC(N)=O)C(=O)N1)C(=O)NCC(N)=O [His6Ter, His-His-His-His-His-His-Gly-Gly-Gly-Cys-Tyr-Phe-Gln-Asn-Cys-Pro-Lys-Gly-NH2] (H-HHHHHHGGGCYFQNCPKG-NH2; disulfide 10-15) | water soluble |  |  |  |  | loss of paleness after [3]: 6 h
3 | N=C(N)NCCC[C@H](NC(=O)[C@@H]1CCCN1C(=O)[C@@H]1CSSC[C@H](NC(=O)CNC(=O)CNC(=O)CNC(=O)[C@H](Cc2c[nH]cn2)NC(=O)[C@H](Cc2c[nH]cn2)NC(=O)[C@H](Cc2c[nH]cn2)NC(=O)[C@H](Cc2c[nH]cn2)NC(=O)[C@H](Cc2c[nH]cn2)NC(=O)[C@@H](N)Cc2c[nH]cn2)C(=O)N[C@@H](Cc2ccc(O)cc2)C(=O)N[C@@H](Cc2ccccc2)C(=O)N[C@@H](CCC(N)=O)C(=O)N[C@@H](CC(N)=O)C(=O)N1)C(=O)NCC(N)=O [His6Vas, His-His-His-His-His-His-Gly-Gly-Gly-Cys-Tyr-Phe-Gln-Asn-Cys-Pro-Arg-Gly-NH2] (H-HHHHHHGGGCYFQNCPRG-NH2; disulfide 10-15) | water soluble |  |  |  |  | 
4 | NCCCC[C@H](NC(=O)[C@@H]1CCCN1C(=O)[C@@H]1CSSC[C@H](NC(=O)CNC(=O)CNC(=O)CN)C(=O)N[C@@H](Cc2ccc(O)cc2)C(=O)N[C@@H](Cc2ccccc2)C(=O)N[C@@H](CCC(N)=O)C(=O)N[C@@H](CC(N)=O)C(=O)N1)C(=O)NCC(N)=O [Terlipressin, reference compound] (H-GGGCYFQNCPKG-NH2; disulfide 4-9) |  | +++ | + | − | − | course of activity on incubation in human serum [1]: loses its activity quickly; course of activity on incubation in human serum ([1]; listed as terlipressin): losses activity immediately afterwards; ear colour at 6 h ([3]; subcutaneous injection into the back, 6 h): pale; ear colour at 24 h ([3]; subcutaneous injection into the back, 24 h): returned to a baseline color; loss of paleness after [3]: 6 h
5 | NC(=O)CC[C@@H]1NC(=O)[C@H](Cc2ccccc2)NC(=O)[C@H](Cc2ccc(O)cc2)NC(=O)[C@@H](N)CSSC[C@@H](C(=O)N2CCC[C@H]2C(=O)N[C@@H](CCCN=C(N)N)C(=O)NCC(N)=O)NC(=O)[C@H](CC(N)=O)NC1=O [vasopressin] |  |  |  |  |  | half-life [4]: 24 min

Now from value to compound, other results behind:

Row | solubility in water [2] | Structure (SMILES) | Activity of Various Vasopressin Analogs, 0 h [1] | Activity of Various Vasopressin Analogs, 1 h [1] | Activity of Various Vasopressin Analogs, 2 h [1] | Activity of Various Vasopressin Analogs, 4 h [1] | other results
6 | water soluble | CCCCCCCC(=O)NCC(=O)NCC(=O)NCC(=O)N[C@H]1CSSC[C@@H](C(=O)N2CCC[C@H]2C(=O)N[C@@H](CCCCN)C(=O)NCC(N)=O)NC(=O)[C@H](CC(N)=O)NC(=O)[C@H](CCC(N)=O)NC(=O)[C@H](Cc2ccccc2)NC(=O)[C@H](Cc2ccc(O)cc2)NC1=O [C8TerA, CH3(CH2)6CO-Gly-Gly-Gly-Cys-Tyr-Phe-Gln-Asn-Cys-Pro-Lys-Gly-NH2] (Octanoyl-GGGCYFQNCPKG-NH2; disulfide 4-9) | +++ | +++ | +++ | +++ | 
7 | limited solubility in water | CCCCCCCCCCCC(=O)OC(C)C(=O)NCC(=O)NCC(=O)NCC(=O)N[C@H]1CSSC[C@@H](C(=O)N2CCC[C@H]2C(=O)N[C@@H](CCCCN)C(=O)NCC(N)=O)NC(=O)[C@H](CC(N)=O)NC(=O)[C@H](CCC(N)=O)NC(=O)[C@H](Cc2ccccc2)NC(=O)[C@H](Cc2ccc(O)cc2)NC1=O (stereo partly drawn) [C12TerE, CH3(CH2)10CO—OHC(CH3)CO-Gly-Gly-Gly-Cys-Tyr-Phe-Gln-Asn-Cys-Pro-Lys-Gly-NH2] (Lauroyl-[ξLac]GGGCYFQNCPKG-NH2; disulfide 5-10) | +++ | + | − | − | 
8 | water soluble | NCCCC[C@H](NC(=O)[C@@H]1CCCN1C(=O)[C@@H]1CSSC[C@H](NC(=O)CNC(=O)CNC(=O)CNC(=O)[C@H](Cc2c[nH]cn2)NC(=O)[C@H](Cc2c[nH]cn2)NC(=O)[C@@H](N)Cc2c[nH]cn2)C(=O)N[C@@H](Cc2ccc(O)cc2)C(=O)N[C@@H](Cc2ccccc2)C(=O)N[C@@H](CCC(N)=O)C(=O)N[C@@H](CC(N)=O)C(=O)N1)C(=O)NCC(N)=O [His3Ter, His-His-His-Gly-Gly-Gly-Cys-Tyr-Phe-Gln-Asn-Cys-Pro-Lys-Gly-NH2] (H-HHHGGGCYFQNCPKG-NH2; disulfide 7-12) |  |  |  |  | 
9 | water soluble | N=C(N)NCCC[C@H](NC(=O)[C@@H]1CCCN1C(=O)[C@@H]1CSSC[C@H](NC(=O)CNC(=O)CNC(=O)CNC(=O)[C@H](Cc2c[nH]cn2)NC(=O)[C@H](Cc2c[nH]cn2)NC(=O)[C@@H](N)Cc2c[nH]cn2)C(=O)N[C@@H](Cc2ccc(O)cc2)C(=O)N[C@@H](Cc2ccccc2)C(=O)N[C@@H](CCC(N)=O)C(=O)N[C@@H](CC(N)=O)C(=O)N1)C(=O)NCC(N)=O [His3Vas, His-His-His-Gly-Gly-Gly-Cys-Tyr-Phe-Gln-Asn-Cys-Pro-Arg-Gly-NH2] (H-HHHGGGCYFQNCPRG-NH2; disulfide 7-12) |  |  |  |  | 

From US8518876B2, “Composition for long-acting peptide analogs” (Pharmaln Corporation, priority 2007, dated 2013)
